“And” between values parts separate entries of the source, which are not always exact repeats. Equal values may be shown once. ± gives the expanded uncertainty stated by the source.
Assay: xn = mol fraction of the nth substance listed
Details: 100 kPa, Liquid, Frequency=5 MHz, Single path-length method, x1 = 0.7

| SMILES | speed of sound (1243 K) [m/s] | speed of sound (1254 K) [m/s] | speed of sound (1260 K) [m/s] | speed of sound (1261 K) | speed of sound (1271 K) [m/s] | speed of sound (1278 K) [m/s] |
| --- | --- | --- | --- | --- | --- | --- |
| [F-].[Li+] [lithium fluoride] + [Br-].[K+] | 1408 ± 28 | 1394 ± 28 | 1385 ± 28 |  |  |  |
| [F-].[Li+] [lithium fluoride] + [Cl-].[Cs+] |  |  |  | 1236 ± 25 m/s and 1235 ± 25 m/s | 1226 ± 25 | 1220 ± 24 |

Reference: the NIST ThermoML archive (doi:10.1016/j.jct.2010.10.021)
